Experimental findings from article PMC10191376, “Characterization of the L-arabinofuranose-specific GafABCD ABC transporter essential for L-arabinose-dependent growth of the lignocellulose-degrading bacterium Shewanella sp. ANA-3” (Microbiology, 2023) are described below.

SMILES strings stand for the structures.

Assay [1] has as its target T1, GafASm (Smb_21587) (Sinorhizobium meliloti, UniProt Q926G2).
T1 construct: gene SM_b21587
Put plainly: DSF thermal shift (ΔTm […] °C at […]), weak. Type of assay: binding. As to conditions: read-out: ΔT m (°C) at 1.2 mM [ligand] / GafASm.

In assay [2] the target is GafASw (Shewana3_2073). Put plainly: crystal structure ([…] Å), ITC, intrinsic fluorescence, DSF. In kind it is binding, Shewanella sp. ANA-3.
Assay [3] has as its target T1, GafASm (Smb_21587). Put plainly: DSF thermal shift (ΔTm […] °C at […]). In kind it is binding. As to conditions: read-out: ΔT m (°C) at 1.2 mM [ligand] / GafASm.
Assay [4] addresses GafASw (Shewana3_2073). The assay is described as follows: ITC, intrinsic fluorescence ([…]), DSF. In kind it is binding, Shewanella sp. ANA-3. (In ITC the heat of successive injections is recorded.)
For assay [5], the target named is T1, GafASm (Smb_21587). The assay is described as follows: DSF thermal shift (ΔTm […] °C at […]). In kind it is binding. As to conditions: read-out: ΔT m (°C) at 1.2 mM [ligand] / GafASm. The source holds these as a separate data set.
Assay [6] has as its target T1, GafASm (Smb_21587). Put plainly: DSF thermal shift (ΔTm […] °C at […]). Type of assay: binding. As to conditions: read-out: ΔT m (°C) at 1.2 mM [ligand] / GafASm. The source holds these as a separate data set.

T1 sequence (Q926G2 entry or part of it): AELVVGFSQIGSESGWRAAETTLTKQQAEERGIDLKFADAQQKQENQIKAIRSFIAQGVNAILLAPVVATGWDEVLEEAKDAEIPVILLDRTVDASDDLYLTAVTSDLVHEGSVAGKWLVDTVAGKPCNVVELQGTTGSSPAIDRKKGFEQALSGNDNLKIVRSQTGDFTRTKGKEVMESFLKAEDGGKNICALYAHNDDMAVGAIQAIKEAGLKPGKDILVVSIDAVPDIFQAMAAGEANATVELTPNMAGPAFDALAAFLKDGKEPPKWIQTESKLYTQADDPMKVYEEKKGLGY

As to `OC[C@H]1OC(O)[C@@H](O)[C@@H](O)[C@H]1O` (stereo partly drawn) [D-talose], the ΔTm at 1200 µM at GafASm (Smb_21587) [1] came out at 3.4 ± 0.2 °C.
As a reminder, the Kd is the equilibrium constant for the complex coming apart. Low readings indicate a tighter complex, high ones a looser complex. On GafASw (Shewana3_2073) [2], `OC[C@@H]1OC(O)[C@H](O)[C@H]1O` (stereo partly drawn) [L-arabinofuranose] returned a Kd of 5.8 ± 0.51 µM.
With `C[C@H]1OC(O)[C@H](O)[C@@H](O)[C@H]1O` (stereo partly drawn) [D-fucose], the ΔTm at 1200 µM on GafASm (Smb_21587) [3] amounted to 11.8 ± 0.2 °C.
As for `OC[C@H]1OC(O)[C@H](O)[C@H](O)[C@@H]1O` (stereo partly drawn) [D-allose], the Kd at GafASw (Shewana3_2073) [4] came to 27.4 ± 4.32 µM.
Take `OC1OC[C@H](O)[C@H](O)[C@H]1O` (stereo partly drawn) [L-arabinose]: at GafASm (Smb_21587) [5], the ΔTm at 1200 µM amounted to 14.4 ± 0.2 °C.
As to `OC[C@H]1OC(O)[C@H](O)[C@@H](O)[C@H]1O` (stereo partly drawn) [D-galactose], the ΔTm at 1200 µM on GafASm (Smb_21587) [6] was determined as 11.6 ± 0.2 °C.
